Measurements as given in ChEMBL document CHEMBL5154810, “Development of Potent Immune Modulators Targeting Stimulator of Interferon Genes Receptor” (J Med Chem, 2022).
Active and inactive are the calls of the source. No cut-off for these calls is given here.

Experiments:
[1] = target: Stimulator of interferon genes protein (Homo sapiens, UniProt Q86WV6); conditions: THP1-Dual, filed as activator, dose 50.0 µM, time 24.0 hrs
[2] = Activation of IRF-mediated immune response in human THP1-Dual KO-STING cells co-expressing ISRE reporter assessed as normalized luciferase gene expression by measuring relative luciferase units at 50 uM incubated for 24 hrs by QUANTI Luc based microplate reader method; assay type: functional
[3] = Cytotoxicity against human THP1-Dual KO-STING cells assessed as residual cell viability by CellTiter96 Aqueous One Solution Cell Proliferation Assay; assay type: functional; design: concentration or dose not given beside the values
THP1-Dual = experiment: Cytotoxicity against human wild type THP1-Dual cells assessed as residual cell viability by CellTiter96 Aqueous One Solution Cell Proliferation Assay; assay type: functional; design: concentration or dose not given beside the values
[4] = AUCinfinity in BALB/c mouse at 3 mg/kg, iv by LC-MS/MS analysis; assay type: ADME, organism-based; design: time infinity, dose 3 mg/kg, route iv; conditions: BALB/c, in vivo
[5] = Volume of distribution at steady state in BALB/c mouse at 3 mg/kg, iv by LC-MS/MS analysis; assay type: ADME, organism-based; conditions: in vivo, read-out: Vdss
[6] = AUClast in BALB/c mouse at 3 mg/kg, iv by LC-MS/MS analysis; assay type: ADME, organism-based; design: time 0 - last, dose 3 mg/kg, route iv; conditions: in vivo
[7] = Terminal half life in BALB/c mouse at 3 mg/kg, iv by LC-MS/MS analysis; assay type: ADME, organism-based; conditions: in vivo, read-out: beta t1/2 (converted)
[8] = Clearance in BALB/c mouse at 3 mg/kg, iv by LC-MS/MS analysis; assay type: ADME, organism-based; conditions: BALB/c, in vivo
[9] = target: Nuclear factor NF-kappa-B complex (Homo sapiens) (UniProt Q00653+P19838+Q04206); experiment: Activation of NF-kappaB mediated pro-inflammatory effector proteins in human THP-1 cells at 2 to 10 nM incubated for 4 hrs by western blot analysis; assay type: cell-based; conditions: filed as activator, dose 2-10 nM
RAW264.7 = experiment: Activation of NF-kappaB mediated pro-inflammatory effector proteins in mouse RAW264.7 cells at 100 to 500 nM for incubated for 3 hrs by western blot analysis; assay type: cell-based; conditions: filed as activator, dose 100-500 nM
[10] = Induction of IP-10 secretion in human THP-1 cells assessed as maximal efficacy by ELISA relative to control; assay type: functional

Sequence of Stimulator of interferon genes protein (Q86WV6 whole entry): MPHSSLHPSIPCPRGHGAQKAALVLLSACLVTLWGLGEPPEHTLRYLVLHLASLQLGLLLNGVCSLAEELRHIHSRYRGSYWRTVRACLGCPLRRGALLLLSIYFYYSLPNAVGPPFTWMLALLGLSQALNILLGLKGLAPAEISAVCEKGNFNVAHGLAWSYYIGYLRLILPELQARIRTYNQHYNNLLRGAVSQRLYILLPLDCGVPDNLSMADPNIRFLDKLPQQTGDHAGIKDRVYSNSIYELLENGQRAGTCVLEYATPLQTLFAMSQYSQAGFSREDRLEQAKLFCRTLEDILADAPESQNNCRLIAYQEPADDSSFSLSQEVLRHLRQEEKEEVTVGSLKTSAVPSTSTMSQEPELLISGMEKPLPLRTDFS
Sequence of Nuclear factor NF-kappa-B complex (Homo sapiens) (P19838 whole entry, looked up): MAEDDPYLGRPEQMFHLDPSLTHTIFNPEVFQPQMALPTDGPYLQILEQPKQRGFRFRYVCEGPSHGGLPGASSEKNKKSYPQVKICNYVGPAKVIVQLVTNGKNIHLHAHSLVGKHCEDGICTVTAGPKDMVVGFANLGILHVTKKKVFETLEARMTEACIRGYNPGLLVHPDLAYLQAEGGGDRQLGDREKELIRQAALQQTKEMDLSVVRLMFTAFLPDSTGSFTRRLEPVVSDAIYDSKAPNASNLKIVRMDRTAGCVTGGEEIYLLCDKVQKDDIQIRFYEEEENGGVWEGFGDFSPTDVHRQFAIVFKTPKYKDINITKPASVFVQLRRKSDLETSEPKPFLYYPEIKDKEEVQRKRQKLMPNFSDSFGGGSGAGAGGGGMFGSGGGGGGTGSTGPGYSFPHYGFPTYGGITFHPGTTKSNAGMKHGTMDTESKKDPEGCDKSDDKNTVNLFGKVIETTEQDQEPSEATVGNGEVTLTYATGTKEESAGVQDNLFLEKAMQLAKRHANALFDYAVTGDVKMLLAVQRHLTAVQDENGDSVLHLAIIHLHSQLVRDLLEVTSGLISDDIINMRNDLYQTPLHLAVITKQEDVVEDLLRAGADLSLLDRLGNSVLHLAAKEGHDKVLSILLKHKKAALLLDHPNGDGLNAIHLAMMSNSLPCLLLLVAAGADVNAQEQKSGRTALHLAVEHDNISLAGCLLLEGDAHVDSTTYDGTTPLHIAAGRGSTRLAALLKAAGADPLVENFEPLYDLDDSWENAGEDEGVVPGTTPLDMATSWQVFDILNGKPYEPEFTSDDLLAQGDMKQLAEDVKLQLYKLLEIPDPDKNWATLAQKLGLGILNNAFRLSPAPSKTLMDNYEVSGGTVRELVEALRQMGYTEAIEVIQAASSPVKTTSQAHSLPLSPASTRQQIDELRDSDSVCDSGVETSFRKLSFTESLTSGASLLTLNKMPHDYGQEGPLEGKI
Sequence of Nuclear factor NF-kappa-B complex (Homo sapiens) (Q00653 whole entry, looked up): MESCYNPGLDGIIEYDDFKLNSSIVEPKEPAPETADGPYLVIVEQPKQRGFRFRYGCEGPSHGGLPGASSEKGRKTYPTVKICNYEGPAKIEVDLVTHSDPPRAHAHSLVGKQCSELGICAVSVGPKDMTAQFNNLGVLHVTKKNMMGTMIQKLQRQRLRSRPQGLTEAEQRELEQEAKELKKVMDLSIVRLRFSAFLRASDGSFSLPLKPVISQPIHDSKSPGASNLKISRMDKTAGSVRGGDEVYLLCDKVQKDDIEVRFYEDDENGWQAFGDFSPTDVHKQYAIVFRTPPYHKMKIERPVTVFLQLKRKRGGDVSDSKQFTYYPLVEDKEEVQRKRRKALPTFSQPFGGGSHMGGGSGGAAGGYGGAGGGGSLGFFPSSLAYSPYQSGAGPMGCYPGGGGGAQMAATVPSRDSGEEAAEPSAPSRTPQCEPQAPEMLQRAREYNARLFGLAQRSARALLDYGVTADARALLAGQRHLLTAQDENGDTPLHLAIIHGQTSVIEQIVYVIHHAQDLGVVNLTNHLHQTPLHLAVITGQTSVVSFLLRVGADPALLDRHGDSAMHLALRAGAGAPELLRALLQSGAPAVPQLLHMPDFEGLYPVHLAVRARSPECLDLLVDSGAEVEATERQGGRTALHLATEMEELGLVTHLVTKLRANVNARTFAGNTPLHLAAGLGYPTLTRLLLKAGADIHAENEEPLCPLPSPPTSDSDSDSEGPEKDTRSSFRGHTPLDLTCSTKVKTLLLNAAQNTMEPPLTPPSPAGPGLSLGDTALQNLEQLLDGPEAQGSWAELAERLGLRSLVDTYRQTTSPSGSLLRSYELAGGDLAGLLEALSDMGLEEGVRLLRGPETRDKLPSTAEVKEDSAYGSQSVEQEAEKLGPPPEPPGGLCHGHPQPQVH
Sequence of Nuclear factor NF-kappa-B complex (Homo sapiens) (Q04206 whole entry, looked up): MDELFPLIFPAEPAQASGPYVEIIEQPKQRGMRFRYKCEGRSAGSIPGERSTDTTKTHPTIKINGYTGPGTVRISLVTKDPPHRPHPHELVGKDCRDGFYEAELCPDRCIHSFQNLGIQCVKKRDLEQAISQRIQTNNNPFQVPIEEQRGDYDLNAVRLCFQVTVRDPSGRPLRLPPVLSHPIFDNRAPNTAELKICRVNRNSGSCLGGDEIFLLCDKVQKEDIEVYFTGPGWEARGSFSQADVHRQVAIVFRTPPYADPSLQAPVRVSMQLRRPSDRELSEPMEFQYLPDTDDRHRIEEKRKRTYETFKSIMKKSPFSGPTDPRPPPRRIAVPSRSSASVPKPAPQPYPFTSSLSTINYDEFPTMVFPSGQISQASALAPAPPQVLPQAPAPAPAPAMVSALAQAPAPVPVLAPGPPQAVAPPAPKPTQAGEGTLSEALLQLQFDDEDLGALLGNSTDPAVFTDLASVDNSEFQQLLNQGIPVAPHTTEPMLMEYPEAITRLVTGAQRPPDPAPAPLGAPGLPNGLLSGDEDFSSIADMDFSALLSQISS

| SMILES | RLU [1] | RLU [2] | Activity [3] [%] | Activity (THP1-Dual) [%] | also measured |
| --- | --- | --- | --- | --- | --- |
| CCn1nc(C)cc1C(=O)Nc1nc2cc(C(N)=O)cc(OC)c2n1CCCCNC(=O)OC(C)(C)C | 2.7 | 0.5 | 90 | 72.1 |  |
| CCn1nc(C)cc1C(=O)Nc1nc2cc(C(N)=O)cc(OCCCNC(=O)OC(C)(C)C)c2n1C | 127 | 0.8 | 110 | 80.1 |  |
| Cn1cc(C(=O)Nc2nc3cc(C(N)=O)ccc3n2C[C@@H](O)c2ccccc2)c(C(F)(F)F)n1 | 0.8 | 1.1 | 92.4 | 89.4 |  |
| Cc1cc(C(=O)Nc2nc3cc(C(N)=O)ccc3n2CCCCNC(=O)OC(C)(C)C)n(C(C)C)n1 | 0.9 | 0.8 | 100.1 | 97.1 |  |
| NC(=O)c1ccc2c(c1)nc(NC(=O)c1cc3ccccc3o1)n2C[C@@H](O)c1ccccc1 | 0.8 | 0.8 | 105.5 | 90.2 |  |
| CCn1nc(C)cc1C(=O)Nc1nc2cc(C(N)=O)ccc2n1CCCCNC(=O)c1ccccc1 | 7 | 0.2 | 64.2 | 27.4 |  |
| CCn1nc(C)cc1C(=O)Nc1nc2cc(C(N)=O)cc(OC)c2n1C/C=C/Cn1c(NC(=O)c2cc(C)nn2CC)nc2cc(C(N)=O)cc(OCCCN)c21 | 101 | 0.7 |  |  |  |
| CCn1nc(C)cc1C(=O)Nc1nc2cc(C(N)=O)cc(OC)c2n1C/C=C/CNC(=O)OC(C)(C)C | 13.7 | 0.7 | 87.7 | 89.5 |  |
| CCn1nc(C)cc1C(=O)Nc1nc2cc(C(N)=O)ccc2n1CCCCCNC(=O)OC(C)(C)C | 16.3 | 0.6 | 87 | 54.9 |  |
| CCn1nc(C)cc1C(=O)Nc1nc2cc(C(=O)OC)ccc2n1CCCCn1c(NC(=O)c2cc(C)nn2CC)nc2cc(C(=O)OC)ccc21 | 0.8 | 0.8 | 117.9 | 122 |  |
| C=CCn1nc(C(=O)Nc2nc3cc(C(N)=O)ccc3n2CCCCNC(=O)OC(C)(C)C)cc1C | 0.9 | 1.4 | 103.9 | 96.1 |  |
| NC(=O)c1ccc2c(c1)nc(NC(=O)c1nn(C3CCCCO3)c3ccccc13)n2C[C@@H](O)c1ccccc1 (stereo partly specified) | 0.4 | 0.9 | 93.4 | 95.8 |  |
| CCn1nc(C)cc1C(=O)Nc1nc2cc(C(=O)O)ccc2n1CCCCn1c(NC(=O)c2cc(C)nn2CC)nc2cc(C(=O)O)ccc21 | 0.6 | 0.6 | 101.6 | 113.1 |  |
| CCn1nc(C)cc1C(=O)/N=c1\[nH]c2cc(C(N)=O)ccc2n1C[C@@H](O)c1ccccc1 | 2 | 0.7 | 76.9 | 96 |  |
| CC(C)(C)OC(=O)NCCCCn1c(NC(=O)c2ccoc2)nc2cc(C(N)=O)ccc21 | 0.9 | 1 | 96.2 | 90.3 |  |
| Cn1cc(C(=O)Nc2nc3cc(C(N)=O)ccc3n2CCCCn2c(NC(=O)c3cn(C)nc3C(F)(F)F)nc3cc(C(N)=O)ccc32)c(C(F)(F)F)n1 | 7.7 | 0.8 | 115 | 96.7 |  |
| CCn1nc(C)cc1C(=O)NCCCn1c(NC(=O)c2cc(C)nn2CC)nc2cc(C(N)=O)ccc21 | 13.7 | 0.4 | 82.3 | 40.6 |  |
| CCn1nc(C)cc1C(=O)NCCCCCn1c(NC(=O)c2cc(C)nn2CC)nc2cc(C(N)=O)ccc21 | 1 | 0.3 | 77.5 | 44.9 |  |
| CCn1nc(C)cc1C(=O)Nc1nc2cc(C(N)=O)cc(OCCCN)c2n1C | 101 | 1 | 110 | 88 |  |
| Cn1cc(C(=O)Nc2nc3cc(C(N)=O)ccc3n2CCCCNC(=O)OC(C)(C)C)c(C(F)(F)F)n1 | 0.8 | 0.9 | 90.6 | 91.9 |  |
| NC(=O)c1ccc2c(c1)nc(NC(=O)c1ccoc1)n2C[C@@H](O)c1ccccc1 | 0.5 | 0.9 | 94 | 88 |  |

| SMILES | RLU [1] | RLU [2] | Activity [3] [%] | Activity (THP1-Dual) [%] | also measured |
| --- | --- | --- | --- | --- | --- |
| CC(C)(C)OC(=O)NCCCCn1c(NC(=O)c2cc3ccccc3o2)nc2cc(C(N)=O)ccc21 | 0.8 | 0.7 | 98 | 92.7 |  |
| CCn1nc(C)cc1C(=O)Nc1nc2cc(C(N)=O)ccc2n1CCCCN | 0.8 | 1 | 85.5 | 95.2 |  |
| CCn1nc(C)cc1C(=O)NCCCOc1cc(C(N)=O)cc2nc(NC(=O)c3cc(C)nn3CC)n(C)c12 | 99.1 | 0.9 | 113 | 94 |  |
| CCn1nc(C)cc1C(=O)NCCCCn1c(NC(=O)c2cc(C)nn2CC)nc2cc(C(N)=O)ccc21 | 104 | 0.9 | 88.2 | 68.2 | AUC(0-inf) [4]: 320 ng·h/mL; Vd [5]: 1.8 L/kg; AUC(0-t) [6]: 310 ng·h/mL; half-life [7]: 35.4 min; clearance [8]: 158 mL/min/kg |
| Cc1cc(C(=O)Nc2nc3cc(C(N)=O)ccc3n2CCCCNC(=O)OC(C)(C)C)n(C)n1 | 0.9 | 1.2 | 108.2 | 96.7 |  |
| CCn1nc(C(F)(F)F)cc1C(=O)Nc1nc2cc(C(N)=O)ccc2n1C[C@@H](O)c1ccccc1 | 0.7 | 1 | 91 | 88.1 |  |
| NC(=O)c1ccc2c(c1)nc(NC(=O)c1cc3ccccc3o1)n2CCCCn1c(NC(=O)c2cc3ccccc3o2)nc2cc(C(N)=O)ccc21 | 0.9 | 1.3 | 96.8 | 103 |  |
| Nc1nc2c(ncn2[C@@H]2O[C@@H]3COP(=O)(O)O[C@H]4[C@@H](O)[C@H](n5cnc6c(N)ncnc65)O[C@@H]4COP(=O)(O)O[C@@H]2[C@@H]3O)c(=O)[nH]1 |  |  |  | 76.5 |  |
| CCn1nc(C(F)(F)F)cc1C(=O)Nc1nc2cc(C(N)=O)ccc2n1CCCCNC(=O)OC(C)(C)C | 0.8 | 1.1 | 89.9 | 99.4 |  |
| CCn1nc(C)cc1C(=O)Nc1nc2cc(C(N)=O)ccc2n1CCCCNC(C)=O | 0.4 | 0.3 | 74.9 | 40.8 |  |
| CCn1nc(C)cc1C(=O)Nc1nc2cc(C(N)=O)ccc2n1CCCCNC(=O)OC(C)(C)C | 21 | 0.6 | 78.4 | 97.6 |  |
| CCn1nc(C)cc1C(=O)/N=c1\[nH]c2cc(C(N)=O)cc(OC)c2n1C/C=C/Cn1/c(=N/C(=O)c2cc(C)nn2CC)[nH]c2cc(C(N)=O)cc(OCCCN3CCOCC3)c21 | 68.6 | 0.7 |  | 83.1 | Activity [9]: Active; Activity (RAW264.7): Active; Emax [10]: 136% |
| CCn1nc(C)cc1C(=O)Nc1nc2cc(C(N)=O)ccc2n1CCCNC(=O)OC(C)(C)C | 20 | 0.9 | 88 | 90.2 |  |
| CCn1nc(C)cc1C(=O)Nc1nc2cc(C(N)=O)ccc2n1CCCCNC(=O)c1ccn[nH]1 | 0.9 | 1.3 | 109.2 | 99.9 |  |
| CCn1nc(C)cc1C(=O)Nc1nc2cc(C(N)=O)ccc2n1CCCCNC(=O)c1cc(C)nn1C | 93.3 | 0.9 | 105.4 | 66 |  |
| NC(=O)c1ccc2c(c1)nc(NC(=O)c1n[nH]c3ccccc13)n2C[C@@H](O)c1ccccc1 | 0.9 | 1.3 | 100.9 | 91.2 |  |
| CCn1nc(C)cc1C(=O)Nc1nc2cc(C(N)=O)ccc2n1CCCCNC(=O)c1cccnc1 | 1 | 1.1 | 96.4 | 98.9 |  |
| Cc1cc(C(=O)Nc2nc3cc(C(N)=O)ccc3n2CCCCNC(=O)OC(C)(C)C)n(C(C)(C)C)n1 | 1.1 | 1.2 | 82.7 | 83.5 |  |
| CCn1nc(C)cc1C(=O)Nc1nc2cc(C(N)=O)ccc2n1CCCCNC(=O)C(C)(C)C | 4.8 | 0.4 | 58.6 | 103.7 |  |
| C=CCn1nc(C(=O)Nc2nc3cc(C(N)=O)ccc3n2CCCCn2c(NC(=O)c3cc(C)n(CC=C)n3)nc3cc(C(N)=O)ccc32)cc1C | 0.8 | 0.9 | 108.3 | 108.6 |  |
